In patent US20260285857A1, “BICYCLIC AND HETEROCYCLIC AMIDE COMPOUNDS” (priority 2024, published 2026):

Test system: immunoglobulin light chain protein WIL-FL T46L
Test: Differential scanning fluorimetry (thermal shift) assay
Assay type: binding
Details: temperature shift [Tm]compound-[Tm]vehicle, recombinant WIL-FL T46L

Compound	DSF (Table B)	DSF (Table A)
Cc1cc(N2CC[C@@](C)(n3ccc(C(F)(F)F)n3)C2)cn2nc(C(=O)NC3COC4(COC4)C3)nc12 (some centres unmarked) [Compound 593]	***** (>2.5° C.=*****)	
Cc1cc(N2CC[C@](C)(c3ccccc3)C2)cn2nc(C(=O)N3CC[C@@]4(CCN(C(=O)c5cccc(C(=O)O)n5)C4)C3)nc12 [Compound 715]	***** (>2.5° C.=*****)	
Cc1cc(N2CC[C@](C)(c3ccccc3)C2)cn2nc(C(=O)N3CCn4c(nnc4-c4cccc(C(=O)O)n4)C3)nc12 [Compound 408]		***** (>2.5° C.=*****)
Cc1cc(N2CC[C@](C)(c3ccccc3)C2)cn2nc(C(=O)N3CCC4(CCN(C5CCC(C(=O)O)CC5)C4)C3)nc12 (some centres unmarked) [Compound 377]		***** (>2.5° C.=*****)
Cc1cc(N2CC[C@](C)(c3ccccc3)C2)cn2nc(C34CC(CO3)C4c3nc(N)nn3S(=O)(=O)C3CC(C)(C(=O)O)C3)nc12 (some centres unmarked) [Compound 566]	***** (>2.5° C.=*****)	
Cc1cc(N2CC[C@](C)(c3ccccc3)C2)cn2nc(C(=O)NC3CCN(c4cccc(-c5nnn[nH]5)n4)CC3)nc12 [Compound 285]		***** (>2.5° C.=*****)
Cc1cc(N2CC[C@](C)(c3ccccc3)C2)cn2nc(C(=O)N[C@@H]3CC[C@@H]3O)nc12 [Compound 161]		***** (>2.5° C.=*****)
Cc1cc(N2CC3(c4ccccc4)CC2C3)cn2nc(C(=O)N3CC4CN(c5cccc(C(=O)O)n5)CC4C3)nc12 (centres unmarked) [Compound 431]		* (0-0.5° C.=*)
Cc1cc(N2CC[C@](C)(c3ccccc3)C2)cn2nc(C(=O)N3CCCC(C(=O)O)C3)nc12 (some centres unmarked) [Compound 197]		***** (>2.5° C.=*****)
CNC(=O)c1nc2c(C)cc(N3CC[C@](C)(c4ccccc4)C3)cn2n1 [Compound 170]		***** (>2.5° C.=*****)
CNC(=O)c1nc2c(C#N)cc(N3CC[C@](C)(c4ccccc4)C3)cn2n1 [Compound 338]		* (0-0.5° C.=*)
Cc1cc(N2CC[C@](C)(c3ccccc3)C2)cn2nc(C(=O)NC3CN(c4cccc(C(=O)O)n4)CC34COC4)nc12 (some centres unmarked) [Compound 646]	***** (>2.5° C.=*****)	
Cc1cc(N2CC[C@](C)(c3ccccc3)C2)cn2nc(C34CC(NC(=O)c5cccc(C(=O)O)n5)(CO3)C4)nc12 [Compound 466, (R)-6-((1-(8-methyl-6-(3-methyl-3-phenylpyrrolidin-1-yl)-[1,2,4]triazolo[1,5-a]pyridin-2-yl)-2-oxabicyclo[2.1.1]hexan-4-yl)carbamoyl)picolinic acid]	***** (>2.5° C.=*****)	
Cc1cc(N2CC[C@](C)(c3ccccc3)C2)cn2nc(C34CCC(NC(=O)CC(C)(C)O)(C3)O4)nc12 (some centres unmarked) [Compound 53]		***** (>2.5° C.=*****)
Cc1cc(N2CC3(CC[C@@H]3c3ccccc3)C2)cn2nc(C(=O)N3CC[C@@]4(CCN(c5cccc(C(=O)[O-])n5)C4)C3)nc12.[Li+] [Compound 24B, lithium 6-((R)-7-(8-methyl-6-((R)-5-phenyl-2-azaspiro[3.3]heptan-2-yl)-[1,2,4]triazolo[1,5-a]pyridine-2-carbonyl)-2,7-diazaspiro[4.4]nonan-2-yl)picolinate]		***** (>2.5° C.=*****)
Cc1nc([C@H]2[C@]3(CO)CO[C@@]2(c2nc4c(C)cc(N5CC[C@](C)(c6ccccc6)C5)cn4n2)C3)n[nH]1 [Compound 581, ((1S,4R,5R)-5-(5-methyl-1H-1,2,4-triazol-3-yl)-1-(8-methyl-6-((R)-3-methyl-3-phenylpyrrolidin-1-yl)-[1,2,4]triazolo[1,5-a]pyridin-2-yl)-2-oxabicyclo[2.1.1]hexan-4-yl)methanol]	***** (>2.5° C.=*****)	
Cc1cc(N2CC[C@](C)(c3ccccc3)C2)cn2nc([C@]34C[C@H](CO3)[C@@H]4N3CC4(CN(c5cccc(C(=O)O)n5)C4)NC3=O)nc12 [Compound 520]	***** (>2.5° C.=*****)	
Cc1cc(N2CC[C@](C)(c3ccccc3)C2)cn2nc(C(=O)N[C@H]3COCC[C@@H]3O)nc12 [Compound 157]		***** (>2.5° C.=*****)
CCS(=O)(=O)Nc1n[nH]c(C2C3COC2(c2nc4c(C)cc(N5CC[C@@](C)(n6ccc(C(F)(F)F)n6)C5)cn4n2)C3)n1 (some centres unmarked) [Compound 563]	**** (>1.5-2.5° C.=****)	
C[C@]1(c2ccccc2)CCN(c2cc(CO)c3nc(C(=O)N[C@@H]4CCOC4)nn3c2)C1 [Compound 352]		***** (>2.5° C.=*****)
Cc1nc(C2C3(N)COC2(c2nc4c(C)cc(N5CC[C@](C)(c6ccccc6)C5)cn4n2)C3)n[nH]1 (some centres unmarked) [Compound 48]		***** (>2.5° C.=*****)
Cc1cc(N2CC[C@](C)(c3ncco3)C2)cn2nc(C(=O)N3CC[C@@]4(CCN(c5cccc(C(=O)O)n5)C4)C3)nc12 [Compound 21, 6-((R)-7-(8-methyl-6-((S)-3-methyl-3-(oxazol-2-yl)pyrrolidin-1-yl)-[1,2,4]triazolo[1,5-a]pyridine-2-carbonyl)-2,7-diazaspiro[4.4]nonan-2-yl)picolinic acid]		*** (>1-1.5° C.=***)

Compound	DSF (Table B)	DSF (Table A)
Cc1cc(N2CCC(C)(c3c(F)cccc3F)C2)cn2nc(C(=O)N3C[C@@H]4CN(c5cccc(C(=O)O)n5)C[C@@H]4C3)nc12 (some centres unmarked) [Compound 389]		***** (>2.5° C.=*****)
Cc1cc(N2CC[C@](C)(c3ccccc3)C2)cn2nc(C(=O)N3CC[C@]4(CCN(c5cccc(C(=O)O)n5)C4)C3)nc12 [Compound 268]		***** (>2.5° C.=*****)
Cc1n[nH]c(C2C3(CO)COC2(c2nc4c(C)cc(N5CC6(CCC6c6ccccc6)C5)cn4n2)C3)n1 (centres unmarked) [Compound 578, [1-[8-methyl-6-(7-phenyl-2-azaspiro[3.3]heptan-2-yl)-[1,2,4]triazolo[1,5-a]pyridin-2-yl]-5-(3-methyl-1H1,2,4-triazol-5-yl)-2-oxabicyclo[2.1.1]hexan-4-yl]methanol]	***** (>2.5° C.=*****)	
Cc1cc(N2CC[C@](C)(c3ccccc3)C2)cn2nc(C(=O)NC3CC4(C3)CC(N3C[C@@H](O)[C@@H](O)C3)C4)nc12 (some centres unmarked) [Compound 369]		***** (>2.5° C.=*****)
Cc1cc(N2CC[C@](C)(c3ccccc3)C2)cn2nc(C(=O)NC(C)(C)C(=O)O)nc12 [Compound 169]		***** (>2.5° C.=*****)
Cc1cc(N2CC[C@](C)(c3ccccc3)C2)cn2nc(C(=O)NCC3(C(=O)O)CC3)nc12 [Compound 165]		***** (>2.5° C.=*****)
Cc1cc(N2CC[C@](C)(c3ccccc3)C2)cn2nc(C34CC(C(=O)NCc5ccnc(C(=O)O)c5)(CO3)C4)nc12 [Compound 453]	***** (>2.5° C.=*****)	
Cc1cc(N2CC[C@](C)(c3ccccc3)C2)cn2nc(C(=O)N3CC(CNc4cccc(C(=O)O)n4)C(C)(O)C3)nc12 (stereo partly drawn) [Compound 696, 6-(((4-hydroxy-4-methyl-1-(8-methyl-6-((R)-3-methyl-3-phenylpyrrolidin-1-yl)-[1,2,4]triazolo[1,5-a]pyridine-2-carbonyl)pyrrolidin-3-yl)methyl)amino)picolinic acid]	***** (>2.5° C.=*****)	
Cc1cc(N2CC[C@](C)(c3ccccc3)C2)cn2nc(C(=O)N3CCC4(CCC(O)(c5cccc(C(=O)O)n5)C4)C3)nc12 (stereo partly drawn) [Compound 670, 6-[8-hydroxy-2-[8-methyl-6-[(3R)-3-methyl-3-phenyl-pyrrolidin-1-yl]-[1,2,4]triazolo[1,5-a]pyridine-2-carbonyl]-2-azaspiro[4.4]nonan-8-yl]pyridine-2-carboxylic acid]	***** (>2.5° C.=*****)	
CCC(=O)Nc1n[nH]c(C2C3(CO)COC2(c2nc4c(C)cc(N5CC[C@](C)(c6ccccc6)C5)cn4n2)C3)n1 (stereo partly drawn) [Compound 572, N-[5-[4-(hydroxymethyl)-1-[8-methyl-6-[(3R)-3-methyl-3-phenyl-pyrrolidin-1-yl]-[1,2,4]triazolo[1,5-a]pyridin-2-yl]-2-oxabicyclo[2.1.1]hexan-5-yl]-1H-1,2,4-triazol-3-yl]propanamide]	***** (>2.5° C.=*****)	
Cc1cc(N2CC[C@](C)(c3ccccc3)C2)cn2nc(C(=O)N3CCC4C3CC(=O)N4c3cccc(C(=O)O)n3)nc12 (some centres unmarked) [Compound 688]	***** (>2.5° C.=*****)	
C[C@]1(c2ccccc2)CCN(c2cc(CO)c3nc(C45CC(CO)(CO4)C5C(N)=O)nn3c2)C1 (some centres unmarked) [Compound 536]	***** (>2.5° C.=*****)	
Cc1cc(N2CC[C@](C)(c3ccccc3)C2)cn2nc(C34CC(CO3)C4Cn3cnc(C(N)=O)n3)nc12 (some centres unmarked) [Compound 90]		**** (>1.5-2.5° C.=****)
Cc1cc(OC[C@H](C)c2ccccc2)cn2nc(C(=O)N3CCC4(CCN(c5cccc(C(=O)O)n5)C4)C3)nc12 (some centres unmarked) [Compound 311]		***** (>2.5° C.=*****)
CNC(=O)c1nn2cc(N3CC[C@](C)(c4ccccc4)C3)cc(C)c2c1COC [Compound 333]		***** (>2.5° C.=*****)
CC(=O)NC12COC(c3nc4c(C)cc(N5CC[C@](C)(c6ccccc6)C5)cn4n3)(C1)C2 [Compound 52]		***** (>2.5° C.=*****)
Cc1n[nH]c(C2C3COC2(c2nc4c(C)cc(OC[C@H](C)c5ccccc5)cn4n2)C3)n1 (some centres unmarked) [Compound 436]		***** (>2.5° C.=*****)
COc1cc(N2CCC3(CCN(C(=O)c4nc5c(C)cc(N6CC[C@](C)(c7ccccc7)C6)cn5n4)C3)C2)cc(C(=O)O)n1 (some centres unmarked) [Compound 619]	***** (>2.5° C.=*****)	
Cc1cc(N2CC[C@](C)(c3ccccc3)C2)cn2nc(S(=O)(=O)NC3CNC3)nc12 [Compound 27, N-(azetidin-3-yl)-8-methyl-6-[(3R)-3-methyl-3-phenyl-pyrrolidin-1-yl]-[1,2,4]triazolo[1,5-a]pyridine-2-sulfonamide]		***** (>2.5° C.=*****)
Cc1cc(N2CC[C@](C)(c3ccccc3)C2)cn2nc(C34CC(CO3)C4N3CCOCC3)nc12 (stereo partly drawn) [Compound 527, 4-(1-(8-methyl-6-((R)-3-methyl-3-phenylpyrrolidin-1-yl)-[1,2,4]triazolo[1,5-a]pyridin-2-yl)-2-oxabicyclo[2.1.1]hexan-5-yl)morpholine]	***** (>2.5° C.=*****)	
Cc1cc(N2CC[C@](C)(c3ccccc3)C2)cn2nc(C(=O)N3CCN(S(C)(=O)=O)CC3)nc12 [Compound 144]		***** (>2.5° C.=*****)
Cc1ncn(CC23CC(C(N)=O)(C2)C(c2nc4c(C)cc(N5CC[C@](C)(c6ccccc6)C5)cn4n2)O3)n1 (some centres unmarked) [Compound 95]		***** (>2.5° C.=*****)
